In publication PMC10530652 (BME Frontiers, 2021):

Experiments:
[1] = test system: MMP activity in ex vivo ventilated ovine lung; assay: Ex vivo ovine lung model instilled with OPA supernatant, FCFM imaging; details: 5 μM FIB One in 1 mL, OPA supernatant-instilled segments, n=3
Protocol: Ovine pulmonary adenocarcinoma (OPA) tissue was homogenised using a drill homogeniser, followed by lysis in cell lysis buffer. The supernatant was collected following centrifugation at 12,000 rpm for 20 min. The samples were adjusted to 1 mg mL^-1 total protein (determined by a Pierce BCA Total Protein Assay Kit (Thermo Fisher Scientific)). Zymography (as described above) was performed to confirm MMP activity across multiple OPA samples. Recombinant MMP-9 (2 nM) and recombinant pro-MMP-9 (0.5 nM) were included in the assay as positive controls. […] Following >30 min, the segments were bronchoscopically identified and microdosed with 5 μM FIB One in 1 mL. FCFM imaging was undertaken pre- and postinstillation (Cellvizio®, Mauna Kea Technologies). This was performed by passing a FCFM fibre into the disparate bronchopulmonary segments (up to 5 passes per bronchopulmonary segment to capture a regional representation of fluorescence), recording images at 12 frames per second and imaging for up to 5 minutes. Videos were analysed as described above. Each experimental set was normalised to the control segment (segment with 1 mL 0.9% NaCl instilled) which represents intrinsic autofluorescence.

[2] = test system: Salmonella typhimurium strain TA98; assay: Reduced test article AMES test, TA98; type: cell-based; details: up to 250 μg/well, in the absence and presence of rat liver S-9
Protocol: These conditions included treatments at concentrations up to 250 μg/well (a 20-fold pro rata reduction from the standard regulatory Ames assay maximum concentration), in the absence and in the presence of a rat liver metabolic activation system (S-9).

[3] = test system: primary human lung tissue; assay: Ex vivo fibre-based (FCFM) imaging of human lung tissue with FIB One; details: FIB One 1 μM, imaged 10 min, FCFM 488 nm excitation, n=9
Protocol: Human lung tissue samples (lung tumour and noncancerous adjacent tissue) were obtained following surgical resection and stored at -80° C until use. Processing for multiwell plate reader assay or zymography analysis was conducted as follows: 1 mm×4 mm sections were homogenised in 400 μL MMP buffer in Precellys 2.8 mm ceramic bead tubes (VWR) using a Pecellys 24 homogeniser. Homogenised tissue was adjusted to 4 mg mL^-1 protein (determined by a Pierce BCA Total Protein Assay Kit (Thermo Fisher Scientific), following the manufacturer’s instructions). Multiwell plate reader assays were performed as previously described, replacing the MMP buffer and MMP enzymes for the homogenised and protein-adjusted lung tissue.
For ex vivo imaging, human lung tissue was sliced into 1 mm×4 mm sections and placed in the wells of a 96-well plate with 100 μL of MMP buffer and 30 nM MMP-13. […] The fluorescence for each sample was calculated by determining the average fluorescence per frame for each time point. […] Five independent patient specimens were collected and analysed. RFUs collected from off-target frames (showing motion artefact or absence of any fluorescence) were omitted during analysis.

[4] = target: T1, MMP-9 (Homo sapiens, UniProt P14780); details: placebo-controlled, 55 COPD patients; cited from earlier work
T1 construct: recombinant MMPs (Enzo Life Sciences) (active domains of MMP-1, MMP-2, MMP-3, MMP-7, MMP-8, MMP-9, MMP-10, MMP-11, MMP-12, and MMP-13); purchased Enzo Life Sciences
Source text: (§1) MMP inhibition has been identified as a target for drug interventions in inflammatory diseases. MMP inhibitors used in trials as cancer therapies were disappointing due to lack of efficacy and significant adverse effects. Studies have also been limited by a lack of quantifiable biomarkers to reflect on their in vivo and functional activity. […] It had previously been used in a phase 2A safety and tolerab ...

[5] = test system: MMP-12; details: placebo-controlled, 55 COPD patients; cited from earlier work
Source text: as §1

[6] = test system: emphysema patients; details: 74 emphysema patients, placebo or AZD1236 75 mg twice daily for 6 weeks; cited from earlier work
Source text: as §1

T1 sequence (P14780 107-444 limits assumed): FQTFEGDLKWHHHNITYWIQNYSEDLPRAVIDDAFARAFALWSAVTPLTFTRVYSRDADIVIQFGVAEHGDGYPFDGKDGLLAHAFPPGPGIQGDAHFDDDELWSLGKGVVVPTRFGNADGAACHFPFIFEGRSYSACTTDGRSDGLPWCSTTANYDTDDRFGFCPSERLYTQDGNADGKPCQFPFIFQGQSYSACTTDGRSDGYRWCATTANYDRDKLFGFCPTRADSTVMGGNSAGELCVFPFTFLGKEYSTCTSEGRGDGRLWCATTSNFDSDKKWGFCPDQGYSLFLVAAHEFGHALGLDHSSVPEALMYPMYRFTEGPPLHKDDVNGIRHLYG

Row | Substance | FIB One fluorescence in segments with high MMP activity [1] | mutation induction [2] | cleavage of FIB One [3] | MMP-9 inhibition in induced sputum [4] | MMP-12 inhibition in induced sputum [5] | effect on the secondary lung physiology endpoints [6]
1 | (Pro-Phe-Gly-Nle-Lys-βAla)3 [FIB One] | diffuse pattern of increased fluorescence | did not induce mutation | cleaved |  |  | 
2 | AZD1236 |  |  |  | failed to demonstrate | failed to demonstrate | no effect
